Several values for one entry are separate records, joined by “and”; a condition that tells them apart may be missing. Equal values may be shown once. Toxic doses and inconclusive results are not listed. Rule for the calls: active = survival T/C of 150% or more; inactive = T/C below 125% in these data.
Tested on: BDF1 mice, P388 leukemia ip, median survival T/C
Experiment: NCI In Vivo Anticancer Drug Screen. Data for tumor model P388 Leukemia (intraperitoneal) in B6D2F1 (BDF1) mice
Conditions: endpoint: median survival time, higher = longer survival
Procedure, shortened: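 Reported as T/C, where T is the survival measurement in dosed animals and C the same measurement in vehicle controls.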

[1] = dose: 12.5 mg/kg/injection, schedule: Q01DX009 (ip), vehicle: Klucel (hydroxypropylcellulose) (HPC)
[2] = dose: 200.0 mg/kg/injection, schedule: Q01DX001 (ip), vehicle: Klucel (hydroxypropylcellulose) (HPC)
[3] = dose: 100.0 mg/kg/injection, schedule: Q01DX001 (ip), vehicle: saline with Tween-80
[4] = dose: 50.0 mg/kg/injection, schedule: Q01DX009 (ip), vehicle: saline with Tween-80
[5] = dose: 100.0 mg/kg/injection, schedule: Q01DX009 (ip), vehicle: saline with Tween-80
[6] = dose: 200.0 mg/kg/injection, schedule: Q01DX009 (ip), vehicle: saline with Tween-80
[7] = dose: 100.0 mg/kg/injection, schedule: Q01DX009 (ip), vehicle: saline
[8] = dose: 200.0 mg/kg/injection, schedule: Q04DX003 (ip), vehicle: saline
[9] = dose: 400.0 mg/kg/injection, schedule: Q04DX003 (ip), vehicle: saline
[10] = dose: 100.0 mg/kg/injection, schedule: Q01DX009 (ip), vehicle: Klucel (hydroxypropylcellulose) (HPC)
[11] = dose: 200.0 mg/kg/injection, schedule: Q01DX009 (ip), vehicle: Klucel (hydroxypropylcellulose) (HPC)
[12] = dose: 100.0 mg/kg/injection, schedule: Q04DX003 (ip), vehicle: saline with Tween-80
[13] = dose: 200.0 mg/kg/injection, schedule: Q04DX003 (ip), vehicle: saline with Tween-80
[14] = dose: 100.0 mg/kg/injection, schedule: Q04DX003 (ip), vehicle: Klucel (hydroxypropylcellulose) (HPC)
[15] = dose: 200.0 mg/kg/injection, schedule: Q04DX003 (ip), vehicle: Klucel (hydroxypropylcellulose) (HPC)
[16] = dose: 400.0 mg/kg/injection, schedule: Q04DX003 (ip), vehicle: saline with Tween-80

Measured: T/C

CCCCCCCCCCCCNCCCCCCCCCCCC
inactive: dose: 1.0 mg/kg/injection, schedule: Q01DX010 (ip), vehicle: other 100 % of control | dose: 2.0 mg/kg/injection, schedule: Q01DX010 (ip), vehicle: other 100 % of control | dose: 3.0 mg/kg/injection, schedule: Q01DX010 (ip), vehicle: other 90 % of control | dose: 3.12 mg/kg/injection, schedule: Q01DX009 (ip), vehicle: Klucel (hydroxypropylcellulose) (HPC) 100 % of control | dose: 3.25 mg/kg/injection, schedule: Q01DX001 (ip), vehicle: Klucel (hydroxypropylcellulose) (HPC) 100 % of control | dose: 4.0 mg/kg/injection, schedule: Q01DX010 (ip), vehicle: other 100 % of control | dose: 6.25 mg/kg/injection, schedule: Q01DX009 (ip), vehicle: Klucel (hydroxypropylcellulose) (HPC) 90 % of control | dose: 6.5 mg/kg/injection, schedule: Q01DX001 (ip), vehicle: Klucel (hydroxypropylcellulose) (HPC) 100 % of control | dose: 8.0 mg/kg/injection, schedule: Q01DX010 (ip), vehicle: water 100 % of control | [1] 95 % of control | dose: 13.0 mg/kg/injection, schedule: Q01DX001 (ip), vehicle: Klucel (hydroxypropylcellulose) (HPC) 100 % of control | dose: 18.0 mg/kg/injection, schedule: Q01DX009 (ip), vehicle: Klucel (hydroxypropylcellulose) (HPC) 95 % of control | dose: 60.0 mg/kg/injection, schedule: Q01DX001 (ip), vehicle: Klucel (hydroxypropylcellulose) (HPC) 100 % of control | dose: 90.0 mg/kg/injection, schedule: Q01DX001 (ip), vehicle: Klucel (hydroxypropylcellulose) (HPC) 100 % of control | dose: 130.0 mg/kg/injection, schedule: Q01DX001 (ip), vehicle: Klucel (hydroxypropylcellulose) (HPC) 105 % of control | dose: 135.0 mg/kg/injection, schedule: Q01DX001 (ip), vehicle: Klucel (hydroxypropylcellulose) (HPC) 104 % of control | [2] 115 % of control | dose: 300.0 mg/kg/injection, schedule: Q01DX001 (ip), vehicle: Klucel (hydroxypropylcellulose) (HPC) 110 % of control | dose: 305.0 mg/kg/injection, schedule: Q01DX001 (ip), vehicle: Klucel (hydroxypropylcellulose) (HPC) 109 % of control

CC(O)c1nc(N)nc(N)c1-c1ccc(Cl)cc1 (centres undefined)
inactive: [3] 106 % of control | dose: 200.0 mg/kg/injection, schedule: Q01DX001 (ip), vehicle: saline with Tween-80 100 % of control

CN(C)CCCOC(=O)CC(C)(C)C
inactive: dose: 50.0 mg/kg/injection, schedule: Q01DX005 (ip), vehicle: water 91 % of control | dose: 100.0 mg/kg/injection, schedule: Q01DX005 (ip), vehicle: water 94 % of control

CC1SC(c2ccccc2)N(c2nccs2)C1=O (centres undefined)
inactive: [4] 103 % of control | [5] 89 % of control | [6] 99 % of control

Cc1ccc(-n2nnc3ccccc3c2=O)cc1C
inactive: [7] 109 % of control | dose: 100.0 mg/kg/injection, schedule: Q04DX003 (ip), vehicle: saline 100 % of control | dose: 200.0 mg/kg/injection, schedule: Q01DX009 (ip), vehicle: saline 90 % of control | [8] 104 % of control | dose: 400.0 mg/kg/injection, schedule: Q01DX009 (ip), vehicle: saline 113 % of control | [9] 100 % of control

COc1ccccc1NC(=O)CSC(N)=O
inactive: [10] 110 % of control | [11] 120 % of control | dose: 264.0 mg/kg/injection, schedule: Q01DX009 (ip), vehicle: Klucel (hydroxypropylcellulose) (HPC) 113 % of control and 120 % of control

CC(C)CSc1nc(N)nc2nc[nH]c12
inactive: [12] 109 % of control | [13] 109 % of control

CC(C)C1C(=O)N2CCCC2C2(O)OC(NC(=O)C3C=C4c5cccc6[nH]cc(c56)CC4N(C)C3)(C(C)C)C(=O)N12 (centres undefined)
inactive: [1] 109 % of control | dose: 25.0 mg/kg/injection, schedule: Q01DX009 (ip), vehicle: saline 115 % of control | dose: 25.0 mg/kg/injection, schedule: Q04DX003 (ip), vehicle: Klucel (hydroxypropylcellulose) (HPC) 91 % of control | dose: 50.0 mg/kg/injection, schedule: Q01DX009 (ip), vehicle: Klucel (hydroxypropylcellulose) (HPC) 109 % of control | dose: 50.0 mg/kg/injection, schedule: Q01DX009 (ip), vehicle: saline 110 % of control | dose: 50.0 mg/kg/injection, schedule: Q04DX003 (ip), vehicle: Klucel (hydroxypropylcellulose) (HPC) 91 % of control | [10] 118 % of control | [7] 109 % of control and 120 % of control | [14] 104 % of control | [15] 100 % of control | [8] 120 % of control | [9] 100 % of control

CC(=O)Oc1c(C)c2c(O)c3c1C1=C(OCOC1=C(C)C3=O)C(C)=CC(C)(O)C(O)C(C)C(O)C1C(=O)OC(C(C)/C=C\C=C(C)C(=O)N2)C(C)C1O (centres undefined)
inactive: [10] 119 % of control | [11] 123 % of control | dose: 400.0 mg/kg/injection, schedule: Q01DX009 (ip), vehicle: Klucel (hydroxypropylcellulose) (HPC) 110 % of control

COC(=O)/C=C\SC(=S)C1CCCC1=O (centres undefined)
inactive: [4] 119 % of control | [5] 110 % of control | [6] 112 % of control

C/C(=C/CC(=O)O)C(=O)O
inactive: dose: 12.5 mg/kg/injection, schedule: Q04DX003 (ip), vehicle: water 119 % of control | dose: 25.0 mg/kg/injection, schedule: Q04DX003 (ip), vehicle: water 97 % of control | dose: 50.0 mg/kg/injection, schedule: Q04DX003 (ip), vehicle: water 97 % of control | dose: 100.0 mg/kg/injection, schedule: Q04DX003 (ip), vehicle: water 103 % of control | dose: 200.0 mg/kg/injection, schedule: Q04DX003 (ip), vehicle: water 122 % of control

CC1(C)C/C(=C\c2ccc(Cl)cc2)C(=O)c2ccccc21
inactive: [14] 100 % of control | [15] 100 % of control | dose: 400.0 mg/kg/injection, schedule: Q04DX003 (ip), vehicle: Klucel (hydroxypropylcellulose) (HPC) 91 % of control

CCCCCCCCCCCCCCCCCOc1ccc2ccccc2c1
inactive: dose: 25.0 mg/kg/injection, schedule: Q01DX001 (ip), vehicle: saline sonified 100 % of control | dose: 50.0 mg/kg/injection, schedule: Q01DX001 (ip), vehicle: saline sonified 100 % of control | dose: 100.0 mg/kg/injection, schedule: Q01DX001 (ip), vehicle: saline sonified 90 % of control

CC1(C)C(N2CCOCC2)C(c2ccccc2)S1(=O)=O (centres undefined)
inactive: [3] 100 % of control | dose: 400.0 mg/kg/injection, schedule: Q01DX001 (ip), vehicle: saline with Tween-80 95 % of control

CCOC(CN=Cc1ccc(Cl)c(Cl)c1)OCC
inactive: dose: 100.0 mg/kg/injection, schedule: Q01DX001 (ip), vehicle: Klucel (hydroxypropylcellulose) (HPC) 100 % of control | [2] 100 % of control | dose: 400.0 mg/kg/injection, schedule: Q01DX001 (ip), vehicle: Klucel (hydroxypropylcellulose) (HPC) 95 % of control

CCN(C(=O)C(F)(F)F)C1(c2ccc(Cl)cc2)CCCCC1SSSC1CCCCC1(c1ccc(Cl)cc1)N(CC)C(=O)C(F)(F)F (centres undefined)
inactive: [12] 100 % of control | [13] 100 % of control | [16] 104 % of control

Cc1nc2c(=O)[nH]n(C)c2nc1C
inactive: [5] 97 % of control | [12] 95 % of control | [6] 97 % of control | [13] 94 % of control | [16] 99 % of control

Source: PubChem BioAssay AID328 (DTP/NCI, 2004)
